Measured values reported in patent US10577349B2 (Sanford Burnham Prebys Medical Discovery Institute, priority 2015, dated 2020).
≈ marks a conversion by molar mass, not a printed value.

Legend:
[1] = biological target: T1, eIF4F complex (Homo sapiens, UniProt Q04637); assay: m7GTP pull-down assay, UACC903 melanoma cells; format: cell-based
T1 construct: PLX4032), or Compound 38; endogenous in cells; host or cells: A375, A375R, Lu1205R, WM793R melanoma cells
Description: As previously described (Dowling R J, et al. mTORC1-mediated cell proliferation, but not cell growth, controlled by the 4E-BPs. Science. 2010; 328:1172-6), cells growing in 100 mm plates were washed (cold PBS), collected, and lysed in 50 mM MOPS/KOH (7.4), 100 mM NaCl, 50 mM NaF, 2 mM EDTA, 2 mM EGTA, 1% NP40, 1% Na-DOC, 7 mM β-mercaptoethanol, protease inhibitors and phosphatase inhibitor cocktail (Roche). Lysates were incubated with m7-GDP-agarose beads (Jena Bioscience) for 20 minutes, washed 4 times with the washing buffer containing 50 mM MOPS/KOH (7.4), 100 mM NaCl, 50 mM NaF, 0.5 mM EDTA, 0.5 mM EGTA, 7 mM (3-mercaptoethanol, 0.5 mM PMSF, 1 mM Na3VO4 and 0.1 mM GTP, and bound proteins were eluted by boiling the beads in loading buffer. m7-GDP-agarose pulled down material was analyzed by Western blot analysis.
The dissociation of eIF4G1 from the eIF4F complex was determined using m^7GTP-agarose pull-down, which captures the eIF4F complex. […] Proteins prepared from UACC903 melanoma cells were treated with indicated Compound 38 concentrations and incubated with m^7GTP-agarose beads to capture the eIF4F complex. Shown is dose-dependent inhibition of eIF4G1 binding to eIF4E, concomitant with increased binding of inhibitory 4E-BP1 to eIF4E. Bottom, the total cell lysate.

[2] = Hepatic Microsome Stability Mouse; format: in vitro ADME
[3] = Aqueous Solubility in 1xPBS, pH 7.4; format: physicochemical; conditions: pH 7.4, aqueous buffer
[4] = biological target: EmCV Cap-independent translation; assay: In vitro translation assay, FF-EmCV-Ren construct, cap-independent (Ren luciferase); format: biochemical, rabbit reticulocyte lysates
In short: (§1)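 In a cell-free system, lysate-driven translation of FF-IRES-Ren RNA (0.1 μg per well, 2 h, 30° C) follows 1 h compound pre-treatment at room temperature. Dual-Glo readings separate cap-dependent (FF) from IRES-mediated (Ren) output.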

[5] = biological target: HCV cap-dependent translation; assay: In vitro translation assay, FF-HCV-Ren construct, cap-dependent (FF luciferase); format: biochemical, rabbit reticulocyte lysates
In short: as §1

[6] = test system: UACC903 and WM1346 cell lines; assay: Reverse phase protein array analysis (RPPA), average of both cell lines; format: cell-based, human
Description: UACC903 and WM1346 cells were treated with DMSO (controls) or 1 μM Compound 38 for 24 h in triplicate. Cells were lysed with lysis buffer (1% Triton X-100, 50 mM HEPES, pH 7.4, 150 mM NaCl, 1.5 mM MgCl2, 1 mM EGTA, 100 mM NaF, 10 mM Na pyrophosphate, 1 mM Na3VO4, 10% glycerol, with freshly added protease and phosphatase inhibitors) and centrifuged at 13,000 g for 20 minutes. Denatured protein lysates containing the same amount of protein were then subjected to RPPA analysis at the RPPA Core Facility, Md. Anderson Cancer Center, as previously described (Tibes. R., et al. Reverse phase protein array: validation of a novel proteomic technology and utility for analysis of primary leukemia specimens and hematopoietic stem cells. Molecular cancer therapeutics 5, 2512-2521 (2006)),
A reverse phase protein array (RPPA) analysis of BRAF- and NRAS-mutant melanomas was performed to identify protein networks affected by Compound 38 (Table 4).

[7] = biological target: EmCV Cap-dependent translation; assay: In vitro translation assay, FF-EmCV-Ren construct, cap-dependent (FF luciferase); format: biochemical, rabbit reticulocyte lysates
In short: as §1

[8] = test system: Nras^Q61K/Ink4a^−/− melanoma tumors; assay: Inducible Nras^Q61K/Ink4a^−/− genetic melanoma model; format: in vivo, mice; conditions: 0.5 mg/kg intraperitoneal twice a week from week 11; compared with control nontreated group
Description: In vivo, Compound 38 was evaluated using an inducible Nras^Q61K/Ink4a^−/− genetic model in which melanoma tumors emerge within 16 to 20 weeks (FIG. 20). Administration of Compound 38 only, starting 11 weeks after genetic inactivation of Ink4a and induction of […] (about 10-14 days prior to tumor appearance), delayed tumor onset (from 20-26 weeks), and reduced tumor incidence, by 50%, compared with the control nontreated group. Mice of the Nras^Q61K:Ink4a^−/− genotype or WT mice (38-40 mice for each genotype) were administered vehicle or Compound 38 at 0.5 mg/kg by intraperitoneal injection twice a week starting at week 11 after Nras^Q61K activation and Ink4a inactivation. Tumor development was monitored twice per week. Latency and frequency of melanoma development over the 21-week treatment period (weeks 11-32) are shown.

## O=C(/C=C/c1cncc(F)c1)c1c(-c2ccccc2)c2cc(Cl)ccc2[nH]c1=O [Compound 38, 6-Chloro-3-[3-(5-fluoro-pyridin-3-yl)-acryloyl]-4-phenyl-1H-quinolin-2-one]
[1]
  dissociation of eIF4G1 from the eIF4F complex (m7GTP-agarose pull-down): dissociated eIF4G1 from the eIF4E in a dose-dependent manner
[2]
  Hepatic Microsome Stability (% remaining at 1 Hr) Mouse: 38.69 % remaining
[2]; no NADPH
  Hepatic Microsome Stability (% remaining at 1 Hr) Mouse (no NADPH): 53.97 % remaining
[3]
  solubility: 5.6 µg/mL (≈ 13.8 µM)
[4]
  IC50: 2 to 10 µM
[5]
  IC50: 2 to 10 µM
[6]
  Ratio [Compound 38/DMSO] A-Raf, Average: 0.9
  Ratio [Compound 38/DMSO] AR, Average: 0.82
  Ratio [Compound 38/DMSO] ATM, Average: 0.81
  Ratio [Compound 38/DMSO] ATR, Average: 0.80
  Ratio [Compound 38/DMSO] BRCA2, Average: 0.93
  Ratio [Compound 38/DMSO] C-Raf, Average: 0.92
  Ratio [Compound 38/DMSO] Chk1, Average: 0.91
  Ratio [Compound 38/DMSO] Ets-1, Average: 0.92
  Ratio [Compound 38/DMSO] GCN5L2, Average: 0.87
  Ratio [Compound 38/DMSO] INPP4b, Average: 0.9
  Ratio [Compound 38/DMSO] MSH6, Average: 0.77
  Ratio [Compound 38/DMSO] PI3K-p85, Average: 0.95
  Ratio [Compound 38/DMSO] PI3K-p110-alpha, Average: 0.95
  Ratio [Compound 38/DMSO] Rad51, Average: 0.85
  Ratio [Compound 38/DMSO] Raptor, Average: 0.86
  Ratio [Compound 38/DMSO] Rictor_pT1135, Average: 0.87
  Ratio [Compound 38/DMSO] S6_pS235_S236, Average: 0.67
  Ratio [Compound 38/DMSO] S6_pS240_S244, Average: 0.63
  Ratio [Compound 38/DMSO] Stat5a, Average: 0.76
  Ratio [Compound 38/DMSO] Tuberin, Average: 0.65
  Ratio [Compound 38/DMSO] YB1, Average: 0.73
  Ratio [Compound 38/DMSO] c-Kit, Average: 0.90
  Ratio [Compound 38/DMSO] c-Myc, Average: 0.76
  Ratio [Compound 38/DMSO] mTOR, Average: 0.80
  Ratio [Compound 38/DMSO] mTOR_pS2448, Average: 0.74
  Ratio [Compound 38/DMSO] p70-S6K_pT389, Average: 0.81
[7]
  IC50: 2 to 10 µM
[8]
  reduced tumor incidence: 50%
  tumor onset, delayed (from - to): 20-26 weeks
